Assay results: US10857105B2, “Compounds and compositions for intracellular delivery of therapeutic agents” (ModernaTX, Inc., priority 2017, dated 2020)

How the values were obtained:
[1] = tested on: hEPO mRNA; assay: Pretreatment study (methotrexate or dexamethasone) with MC3 formulation in Cynomolgus monkeys; type: in vivo; settings: MC3 formulation with hEPO mRNA, once weekly for four weeks
From the text: In order to combat negative effects, nanoparticle compositions are co-administered with one or more substances (e.g., co-medications or additional therapeutic and/or prophylactics) to subjects. Potentially useful additional therapeutic and/or prophylactics include steroids (e.g., corticosteroids), anti-histamines, H1 receptor blockers, H2 receptor blockers, anti-inflammatory compounds, statins, BTK inhibitors, S1P1 agonists, glucocorticoid receptor modulators (GRMs), and estradiols. Non-human primates are pretreated with one or more additional therapeutic agents selected from dexamethasone and acetaminophen. The additional therapeutic agent is administered either 24 hours, 1 hour, or both 24 hours and 1 hour before administration of a nanoparticle composition. Cytokine profiles, inflammation, and other parameters are measured and compared to evaluate the effectiveness of pretreatment
The effects of pretreatment to non-human primates were evaluated using a standard MC3 formulation including an mRNA encoding hEPO. Male monkeys were administered the nanoparticle composition once weekly for four weeks at a dose rate of 5 ml/kg/h and were pretreated with either methotrexate or dexamethasone.
As shown, in the absence of any pretreatment, maximal expression levels decreased nearly 70% over the course of the study.

[2] = tested on: mouse liver tissue; assay: Disappearance of parent lipid and primary metabolite from mouse liver after 0.25 mg/kg mRNA on days 1, 8 and 15; type: in vivo
Description: (§1) In vitro metabolite identification studies using compound 18 were also performed. […] The disappearance of parent compound 18 and the primary metabolite, compound 166, from mouse liver tissue was measured after dosing 0.25 mg/kg mRNA on days 1, 8, and 15.

[3] = tested on: human hepatocytes; assay: Metabolite profiling of Compound 18 incubated with human hepatocytes; type: in vitro ADME; design: key: +: Detected; ND: Not detected; settings: Compound 18 (10 μM), human hepatocytes
Description: as §1
The results of metabolic profiling and characterization for compound 18 incubated with human hepatocytes or human plasma are summarized in Tables 41 and 42, respectively.

[4] = Metabolite identification of Compound 18 incubated with human plasma; type: in vitro ADME; design: key to Detection at 0 min / Detection at 30 min / Detection at 60 min / Detection at 90 min: +: Detected; ND: Not detected; settings: Compound 18 (10 μM), human plasma
Description: Metabolite Identification: Compound 18 (10 μM) was incubated with human plasma (29.0 mg protein/incubation) in incubation mixtures (200 μL final incubation volume) that consisted of 50/50 v/v neat plasma (undiluted)/substrate solution in 50 mM phosphate buffer, pH 7.4). The plasma was obtained from male and female donors and contained K2EDTA anticoagulant. Reactions were started by addition of the substrate solution to human plasma and were stopped at four designated time points (0, 30, 60 and 90 min) by the addition of 600 μL of stop reagent (acetonitrile). Stopped incubation samples were centrifuged (e.g., 10,000×g for 10 min at 10° C.) and the supernatant fractions were analyzed by LC-MS/MS to characterize the metabolites formed from compound 18. Additional incubations were performed with the positive control procaine […] to establish competency of the test system. Samples were analyzed by LC-MS/MS.
as §1

SMILES	Effect of pretreatment on protein expression [1]	clearance from mouse liver tissue [2]	Detection at 60 min ([3]; 60 min)	Detection at 120 min ([3]; 120 min)	Detection at 240 min ([3]; 240 min)	Detection at 30 min ([4]; 30 min)	Detection at 60 min ([4]; 60 min)	Detection at 90 min ([4]; 90 min)
CN(Cc1cnc2nc(N)nc(N)c2n1)c1ccc(C(=O)N[C@@H](CCC(=O)O)C(=O)O)cc1 [Methotrexate, methotrexate]	did not confer any particular beneficial effect							
CCCCCCCCC(CCCCCCCC)OC(=O)CCCCCCCN(CCO)CCCCCCCC(=O)O [Compound 166, 8-((8-(Heptadecan-9-yloxy)-8-oxooctyl)(2-hydroxyethyl)amino)octanoic acid]		rapid clearance	+	+	+	+	+	+
